The values below come from patent US12351570B2 (MERCK PATENT GMBH, priority 2018, dated 2025).

The IC50 is the concentration at which inhibition is half-maximal. Read a low IC50 as greater potency.

One test deals with MDA-MB-231 cells. Kind of test: Extracellular lactate production inhibition after 4 h, MDA-MB-231. Particulars: Homo sapiens, MDA-MB-231.
As for `C#CCOc1ccnc2c(S(=O)(=O)Nc3ccccc3C#Cc3ccc(C(=O)O)nc3)cccc12` [Compound 354, 5-(2-{2-[4-(prop-2-yn-1-yloxy)quinoline-8-sulfonamido]phenyl}ethynyl)pyridine-2-carboxylic acid], the IC50 was in the range of 100 to 1000 nM.

The compound `COc1cc(C(=O)O)ncc1C#Cc1cc(Br)ccc1NS(=O)(=O)c1ccc(OC)c2cccnc12` [Compound 356, 5-{2-[5-bromo-2-(5-methoxyquinoline-8-sulfonamido)phenyl]ethynyl}-4-methoxypyridine-2-carboxylic acid] registered an IC50 of 1 to 10 nM.

On to `COc1ccc(S(=O)(=O)Nc2ccc(Br)cc2C#Cc2cnc(C(=O)O)c3ccccc23)c(C)c1C` [Compound 398, 4-{2-[5-bromo-2-(4-methoxy-2,3-dimethylbenzenesulfonamido)phenyl]ethynyl}isoquinoline-1-carboxylic acid], for which the IC50 was in the range of 10 to 100 nM.

Regarding `O=C(O)c1ccc(C#Cc2ccccc2NS(=O)(=O)/C=C/c2ccccc2)cn1` [Compound 326, 5-(2-{2-[(E)-2-phenylethenesulfon-amido]phenyl}ethynyl)pyridine-2-carboxylic acid], the IC50 lay within 1000 to 100000 nM.

Compound `CNc1cc(C#Cc2cc(Cl)ccc2NS(=O)(=O)c2ccc(OC)c(C)c2C)cnc1C(=O)O` [Compound 403, 5-{2-[5-chloro-2-(4-methoxy-2,3-dimethylbenzenesulfonamido)phenyl]ethynyl}-3-(methylamino)pyridine-2-carboxylic acid] displayed an IC50 of 10 to 100 nM.

`CCOc1ccc(S(=O)(=O)Nc2ccccc2C#Cc2ccc(C(=O)O)nc2)cc1NC(C)=O` [Compound 300, 5-{2-[2-(3-acetamido-4-ethoxy-benzenesulfonamido)phenyl]ethynyl}-pyridine-2-carboxylic acid]: the IC50 lay in the range of 100 to 1000 nM.

Take `COC(=O)c1cc(Cl)c(C#Cc2ccccc2NS(=O)(=O)c2ccc(OC)c3cccnc23)cn1` [Compound 157, methyl 4-chloro-5-{2-[2-(5-methoxyquinoline-8-sulfonamido)phenyl]ethynyl}pyridine-2-carboxylate]: the IC50 lay in the range of 10 to 100 nM.

In the case of `CCc1ccc(NS(=O)(=O)c2c(C)ccc3cccnc23)c(C#Cc2ccc(C(=O)O)nc2)c1` [Compound 417, 5-{2-[5-ethyl-2-(7-methylquinoline-8-sulfonamido)phenyl]ethynyl}pyridine-2-carboxylic acid], the IC50 fell in the range of 1 to 10 nM.

In turn, `COc1ccc(S(=O)(=O)Nc2ccccc2C#Cc2ccc(C(=O)OC(C)C)nc2)c2ncccc12` [Compound 167, propan-2-yl 5-{2-[2-(5-methoxyquinoline-8-sulfonamido)phenyl]ethynyl}pyridine-2-carboxylate] displayed an IC50 of 10 to 100 nM.

On to `Cc1ccc2cccnc2c1S(=O)(=O)Nc1ccc(Br)cc1C#Cc1cnc(C(=O)O)c2ccccc12` [Compound 233, 4-{2-[5-bromo-2-(7-methylquinoline-8-sulfonamido)phenyl]ethynyl}isoquinoline-1-carboxylic acid], for which the IC50 is 10 to 100 nM.

The compound `O=C(O)c1ccc(C#Cc2ccccc2NS(=O)(=O)c2cc3cc(Cl)ccc3s2)cc1` [Compound 281, 4-{2-[2-(5-chloro-1-benzothiophene-2-sulfonamido)phenyl]ethynyl}benzoic acid] returned an IC50 of 100 to 1000 nM.

With `O=C(O)c1ccc(C#Cc2ccccc2NS(=O)(=O)c2c(Cl)nc3sccn23)cn1` [Compound 98, 5-[2-(2-{6-chloroimidazo[2,1-b][1,3]thiazole-5-sulfonamido}phenyl)-ethynyl]pyridine-2-carboxylic acid], the IC50 is 1000 to 100000 nM.

As for `COc1ccc(S(=O)(=O)Nc2ccccc2C#Cc2cnc(C(=O)O)c3ccccc23)c2ncccc12` [Compound 209, 4-{2-[2-(5-methoxyquinoline-8-sulfonamido)phenyl]ethynyl}isoquinoline-1-carboxylic acid], the IC50 lay in the range of 100 to 1000 nM.

With `Cc1cc(C(=O)O)ncc1C#Cc1ccccc1NS(=O)(=O)c1c(C)ccc2cccnc12` [Compound 107, 4-methyl-5-{2-[2-(7-methylquinoline-8-sulfonamido)phenyl]ethynyl}pyridine-2-carboxylic acid], the half-maximal inhibitory concentration (IC50) lay within 10 to 100 nM.

Regarding `O=C(O)c1ccc(C#Cc2ccccc2NS(=O)(=O)c2csc3ccccc23)cn1` [Compound 104, 5-{2-[2-(1-benzothiophene-3-sulfonamido)phenyl]ethynyl}pyridine-2-carboxylic acid], the IC50 lay within 100 to 1000 nM.

Consider `Cc1ccc2cccnc2c1S(=O)(=O)Nc1ccc(N(C)C)cc1C#Cc1ccc(C(=O)O)nc1` [Compound 248, 5-{2-[5-(dimethylamino)-2-(7-methylquinoline-8-sulfonamido)phenyl]ethynyl}pyridine-2-carboxylic acid], for which the IC50 was 100 to 1000 nM.

In turn, `Cc1ccc2cccnc2c1S(=O)(=O)Nc1ccccc1C#Cc1cnc(C(=O)O)cc1-c1ccccc1` [Compound 226, 5-{2-[2-(7-methylquinoline-8-sulfonamido)phenyl]ethynyl}-4-phenylpyridine-2-carboxylic acid] showed an IC50 of 10 to 100 nM.

The compound `Cc1ccc2nsnc2c1S(=O)(=O)Nc1ccccc1C#Cc1ccc(C(=O)O)nc1` [Compound 290, 5-{2-[2-(5-methyl-2,1,3-benzothia-diazole-4-sulfonamido)phenyl]-ethynyl}pyridine-2-carboxylic acid] had an IC50 of 1000 to 100000 nM.

Compound `Cc1ccc2cccnc2c1S(=O)(=O)Nc1ccc(Br)cc1C#Cc1ccc(C(=O)O)nc1` [Compound 340, 5-{2-[5-bromo-2-(7-methylquinoline-8-sulfonamido)phenyl]ethynyl}pyridine-2-carboxylic acid] returned an IC50 of 1 to 10 nM.

In turn, `COc1ccc(S(=O)(=O)Nc2ccccc2C#Cc2cc(F)c(C(=O)O)c(F)c2)c2ccccc12` [Compound 27, 2,6-difluoro-4-{2-[2-(4-methoxynaphthalene-1-sulfonamido)phenyl]ethynyl}benzoic acid] gave a half-inhibitory concentration (IC50) of 1000 to 100000 nM.

For `O=C(O)c1ccc(C#Cc2ccccc2NS(=O)(=O)c2c(Br)ccc3c(Cl)ccnc23)cn1` [Compound 319, 5-{2-[2-(7-bromo-4-chloroquinoline-8-sulfonamido)phenyl]ethynyl}pyridine-2-carboxylic acid], the IC50 lay in the range of 10 to 100 nM.

In turn, `Cc1ccc2cc(Cl)cc(S(=O)(=O)Nc3ccccc3C#Cc3ccc(C(=O)O)nc3)c2n1` [Compound 317, 5-{2-[2-(6-chloro-2-methylquinoline-8-sulfonamido)phenyl]ethynyl}pyridine-2-carboxylic acid] gave an IC50 of 100 to 1000 nM.

Regarding `O=C(O)c1ccc(C#Cc2ccccc2NS(=O)(=O)c2cccc3ccccc23)c2ccccc12` [Compound 84, 4-{2-[2-(naphthalene-1-sulfonamido)phenyl]ethynyl}-naphthalene-1-carboxylic acid], the IC50 was 1000 to 100000 nM.

On to `Cc1ccc2cccnc2c1S(=O)(=O)Nc1ccccc1C#Cc1cnc(C(=O)O)c(N(C)C)c1` [Compound 163, 3-(dimethylamino)-5-{2-[2-(7-methylquinoline-8-sulfonamido)-phenyl]ethynyl}pyridine-2-carboxylic acid], for which the IC50 was in the range of 100 to 1000 nM.

Still in this test, the particulars now being: Table 3; group class A-D; the table does not say which assay or cell line ("the assays described above").
`COc1ccc(S(=O)(=O)Nc2ccc(F)cc2C#Cc2ccc(C(=O)NS(C)(=O)=O)nc2)c2ccccc12` [Compound 255, 4-Methoxy-naphthalene-1-sulfonic acid [4-fluoro-2-(6-methanesulfonyl-aminocarbonyl-pyridin-3-ylethynyl)-phenyl]-amide]: the IC50 lay in the range of 1000 to 100000 nM.
